Source: patent publication US20150111852A1, “1-Di(sec-butyl)-phosphinoyl-pentane (dapa-2-5) as a topical agent” (priority 2013, published 2015)

Columns and labels:
[1] = tested on: oral cavity and pharyngeal surfaces; experiment: Sensory activity of ODT-A on volunteers; type: in vivo, human; conditions: 6 to 8 trials per compound
Procedure: ODT-A was prepared by dissolving the DAPA compound in absolute ethanol, adding a 80% mannitol-20% maltitol mixture of equal weight and then adding an equal volume of distilled water. The mixture was the stirred with a glass rod, and dispensed onto a piece of wax or parchment paper with a disposable plastic pipette. The viscous liquid drop formed was then dried under a heat source for at least 4 hr. The nominal dose of the API in ODT-A ranged from 1 to 3 mg/tablet. The dried tablets weighed on average 150 mg each and when on the dorsal surface of the tongue, rapidly dissolved completely in saliva and coated the oropharyngeal surface. These tablets were suitable for initial pilot studies, but were not uniform in size, were friable, especially in conditions of high ambient humidity, and were not readily amenable to further analytical evaluation.
Sensory Qualities of ODT on the Oral Cavity and Pharyngeal Surfaces The DAPA ODT of Study 2 were evaluated for sensory properties on volunteers. The ODT-A results [see table] are from 6 to 8 trials per compound in several experienced individuals familiar with sensory properties of “cooling agents”. The results of ODT-A will be discussed together with ODT-B and ODT-C.

oropharynx [2] = experiment: Chili-pepper sauce irritation test; type: in vivo, human; set-up: key: If there was no suppression of the irritant/tickling sensations of the sauce, the value was “0”; if there was some suppression, the value was “+”; if there was complete suppression, then the value was “++.”; conditions: ODT, sauce applied 30 min later; 6 to 8 trials per compound
From the text: The “pain” component of inflammation includes irritation, itch, and discomfort and suppression of these endpoints is termed “anti-nociceptive”. To determine if a compound has anti-nociceptive activity, the Inventor has devised a modified capsaicin challenge method to evoke discomfort in the oropharyngx: the chili-pepper sauce irritation test. Chili-pepper sauce placed onto the posterior dorsal surface of the tongue evokes a tickling/irritant sensations in the oropharynx. The sensations associated with the chili pepper sauce are located in the back of the mouth and are clearly recognized and associated with irritation and a desire to clear the throat. In the chili-pepper sauce irritation test, the test compound is delivered using an ODT, as in Study 3, and 30 min later 0.2 to 0.25 mL of the sauce was applied onto the posterior dorsal surface of the tongue (with a syringe or a plastic stick). The chili pepper sauce used here is called Yank Sing® Chili Pepper Sauce (YS Gourmet Productions, Inc., PO Box 26189, San Francisco, Calif. 94126) and is a well-known condiment for use with dim sum (Chinese tea lunch). If there was no suppression of the irritant/tickling sensations of the sauce, the value was “0”; if there was some suppression, the value was “+”; and if there was complete suppression, then the value was “++.” For compounds that gave a ++ score, the irritative signals of the chili-pepper sauce are completely absent, yet the salty taste from the soy sauce of the condiment can still be readily tasted. A “++” result indicated suppression of the irritant effects of chili-pepper sauce. Numerical results are from 6 to 8 trials per compound.

mouth and throat = experiment: Sensory activity of ODT-C on volunteers (double-blind, modified ASHRAE scale); type: in vivo, human; conditions: for ODT-C test results (sensation and taste in words) / duration of cooling effect: 1.2 to 1.5 mg per ODT; for ODT-C test results (sensation and taste in words): 4 volunteers; for duration of cooling effect: ODT-C; for ASHRAE equivalent: peak heat abstraction sensation, modified ASHRAE scale neutral [0] to icy cold [-4]
Procedure: ODT-C. More experiments were conducted to find a smaller tablet, in the range of 40 to 60 mg, with a disintegration of <10 sec. These paraemters might achieve a better pharmacological effect. ODT-B was 100 mg in size and disintegrated in <20 sec. […] For example, to 1.5 g of DAPA-2-5 is added 1.5 g of absolute ethanol, followed by 2.0 g of Neusilin US2. The mixture is shaken or mixed in a Speedmixer at 500 rpm for 1 min. The sample is placed under a heat source and about 2 hr later, the sample size is re-weighed with the expectation that the ethanol has been evaporated and the sample now weights 3.5 g. This powder is free-flowing. • b. a sample of maltitol powder is prepared (Maltisorb® P200 from Roquette). • c. a sample of Prosolv® EasyTab is prepared (JRS Pharma, Rosenburg, Germany). • d. a blend of a. [2.80 g], b. [15.73 g] and c. [31.46 g] is prepared to make 1000 ODT tablets, each weighing 50 mg and containing 1.2 mg of DAPA-2-5. • e. the blend is first shaken by hand, then placed for 2 min in a SpeedMixer at 500 rpm. The blend is poured into the funnel of a New Single Punch Tablet Press Pill Making Machine Maker TDP-1-5 [available from Amazon.com] and the extruded tablets are collected.
ODT-C, described in Study 2, were tested for sensory properties on 4 volunteers, with at least 3 trials per compound and at 1.2 to 1.5 mg per ODT. The ODT was placed on the mid-line posterior dorsal surface of the tongue and sensory effects recorded for 30 min on a standardized form […]. The ODT were coded and administered on a double-blind basis. A modified ASHRAE scale of neutral, slightly cool [-1], cool [-2], cold [-3], and icy cold [-4] was used to rank the peak heat abstraction sensations in the mouth and throat. Other perceived effects, e.g. taste and duration, were also noted.

throat = experiment: Cold water test after ODT-A (cold discomfort); type: in vivo, human; set-up: key: If the subject felt “normal coolness” in the throat, the value was “0”; if the water felt “excessively cold” on the throat, it was rated as “+”; if there was “aching cold/discomfort” on the throat, the ranking was “++”; conditions: ODT-A on the tongue, ice water drunk 10 min later
Procedure: After application of ODT-A there were sensations associated with heat abstraction of various intensity and duration. Of particular note was the sensation of “icy or painful” cold was felt with some compounds, but the effect was variable. To isolate this sensation more precisely and reduce variability, ODT-A was placed on the tongue and 10 min later the subject was instructed to drink a mouthful of water previously equilibrated with ice chips. If the subject felt “normal coolness” in the throat, the value was “0”; if the water felt “excessively cold” on the throat, it was rated as “+”; and if there was “aching cold/discomfort” on the throat, the ranking was “++”. The term “cold discomfort” was applied compounds that produced “++”, and this phenomenon could now be reliably defined and identified with the cold water test.

[3] = target: T1, cloned hTRPM8 channel (encoded by the human TRPM8 gene, expressed in CHO cells) (Homo sapiens, UniProt Q7Z2W7); experiment: TRPM8 agonist FLIPR Fluo-8 calcium assay; type: cell-based; conditions: for EC50: CHO cells, Fluo-8, n=4 replicates
T1 construct: host or cells: CHO cells, stably transfected
Procedure: The in vitro effects of test compounds were evaluated on cloned hTRPM8 channel (encoded by the human TRPM8 gene, expressed in CHO cells) using a Fluo-8 calcium kit and a Fluorescence Imaging Plate Reader (FLIPR^TETRA™) instrument.
Test compounds and positive control solutions were prepared by diluting stock solutions in a HEPES-buffered physiological saline (HBPS) solution. The test compound and control formulations were loaded in polypropylene or glass-lined 384-well plates, and placed into the FLIPR instrument (Molecular Devices Corporation, Union City, Calif., USA). The test compounds were evaluated at 4 or 8 concentrations with n=4 replicates per determination. […] The test cells were Chinese Hamster Ovary (CHO) cells stably transfected with human TRPM8 cDNAs.
For the FLIPR^TETRA™ assay, cells were plated in 384-well black wall, flat clear-bottom microtiter plates (Type: BD Biocoat Poly-D-Lysine Multiwell Cell Culture Plate) at approximately 30,000 cells per well. Cells were incubated at 37° C. overnight to reach a near confluent monolayer appropriate for use in a fluorescence assay. The test procedure was to remove the growth media and to add 40 μL of HBPS containing Fluo-8 for 30 min at 37° C. 10 μL of test compound, vehicle, or control solutions in HBPS were added to each well and read for 4 min.
Concentration-response data were analyzed via the FLIPR Control software that is supplied with the FLIPR System (MDS-AT) and fitted to a Hill equation of the following form: […]
where: “Base” is the response at low concentrations of test compound; “Max” is the maximum response at high concentrations; “xhalf” is the EC50, the concentration of test compound producing half-maximal activation; and “rate” is the Hill coefficient. Nonlinear least squares fits were made assuming a simple one-to-one binding model.

ASIC3 (acid-sensing) = target: T2, ASIC3 (acid-sensing) (Homo sapiens, UniProt Q9UHC3); experiment: Patch-clamp in transfected cells, ASIC3; type: cell-based; conditions: DAPA-2-5 at 5 μM; positive control amiloride
T2 construct: expressed in transfected cells
T2 sequence (Q9UHC3 1-531): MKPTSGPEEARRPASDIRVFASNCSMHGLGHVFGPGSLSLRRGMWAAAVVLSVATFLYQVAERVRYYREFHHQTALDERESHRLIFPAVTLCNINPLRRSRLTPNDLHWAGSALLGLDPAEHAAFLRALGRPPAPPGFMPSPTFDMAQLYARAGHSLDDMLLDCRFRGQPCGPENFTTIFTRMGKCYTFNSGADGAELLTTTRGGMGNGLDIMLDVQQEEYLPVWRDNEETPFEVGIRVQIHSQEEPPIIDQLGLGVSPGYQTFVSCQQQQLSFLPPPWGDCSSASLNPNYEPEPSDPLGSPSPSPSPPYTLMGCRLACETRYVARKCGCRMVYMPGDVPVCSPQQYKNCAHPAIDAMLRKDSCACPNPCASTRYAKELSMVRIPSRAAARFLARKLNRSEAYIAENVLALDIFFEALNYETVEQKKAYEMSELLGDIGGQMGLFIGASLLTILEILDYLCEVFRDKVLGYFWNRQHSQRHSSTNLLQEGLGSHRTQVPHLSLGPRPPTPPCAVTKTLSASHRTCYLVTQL

[4] = tested on: dorsal surface of the tongue; conditions: 6 subjects, filter paper 1×1 cm, 30 sec; cited from earlier work
oropharynx [5] = experiment: Sensory effects and cold discomfort of compounds given orally in ODT (general evaluation); type: in vivo, human; conditions: menthol at a dose of 2 mg in an ODT; icilin dose not given
Procedure: The correlation between a chemical's potency at the TRPM8 receptor (measured by the EC50 μM) and potency to evoke sensory events in the oropharynx is complex.
When a test compound is applied to non-keratinizng bodily surfaces (e.g., oropharyngeal surface), it is possible to characterize the resulting sensations.
The sensations are akin to rapid drinking of cold water mixed and equilibrated with ice chips. The intense cold is further accentuated if the drink is acidified, for example, with lemonade. The sensations of dull and intense cold on the surface of the oropharynx can be described as painful, uncomfortable, and aversive. The term “icy cold” is used to describe these adverse intense cold sensations.
Together, these three types of sensations—“icy cold”, coldness in the chest, and systemic coldness—is termed “cold discomfort”. […] The ideal agent must have a circumscribed site of action, and the intensity of the sensation should not cause “icy cold”, coldness in the chest, or systemic chills.

[6] = target: T3, hNav1.7 (sodium channels) (Homo sapiens, UniProt Q15858); experiment: Patch-clamp in transfected cells, hNav1.7; type: cell-based; conditions: DAPA-2-5 at 5 μM; positive control lidocaine
T3 construct: expressed in transfected cells
T3 sequence (Q15858 whole entry): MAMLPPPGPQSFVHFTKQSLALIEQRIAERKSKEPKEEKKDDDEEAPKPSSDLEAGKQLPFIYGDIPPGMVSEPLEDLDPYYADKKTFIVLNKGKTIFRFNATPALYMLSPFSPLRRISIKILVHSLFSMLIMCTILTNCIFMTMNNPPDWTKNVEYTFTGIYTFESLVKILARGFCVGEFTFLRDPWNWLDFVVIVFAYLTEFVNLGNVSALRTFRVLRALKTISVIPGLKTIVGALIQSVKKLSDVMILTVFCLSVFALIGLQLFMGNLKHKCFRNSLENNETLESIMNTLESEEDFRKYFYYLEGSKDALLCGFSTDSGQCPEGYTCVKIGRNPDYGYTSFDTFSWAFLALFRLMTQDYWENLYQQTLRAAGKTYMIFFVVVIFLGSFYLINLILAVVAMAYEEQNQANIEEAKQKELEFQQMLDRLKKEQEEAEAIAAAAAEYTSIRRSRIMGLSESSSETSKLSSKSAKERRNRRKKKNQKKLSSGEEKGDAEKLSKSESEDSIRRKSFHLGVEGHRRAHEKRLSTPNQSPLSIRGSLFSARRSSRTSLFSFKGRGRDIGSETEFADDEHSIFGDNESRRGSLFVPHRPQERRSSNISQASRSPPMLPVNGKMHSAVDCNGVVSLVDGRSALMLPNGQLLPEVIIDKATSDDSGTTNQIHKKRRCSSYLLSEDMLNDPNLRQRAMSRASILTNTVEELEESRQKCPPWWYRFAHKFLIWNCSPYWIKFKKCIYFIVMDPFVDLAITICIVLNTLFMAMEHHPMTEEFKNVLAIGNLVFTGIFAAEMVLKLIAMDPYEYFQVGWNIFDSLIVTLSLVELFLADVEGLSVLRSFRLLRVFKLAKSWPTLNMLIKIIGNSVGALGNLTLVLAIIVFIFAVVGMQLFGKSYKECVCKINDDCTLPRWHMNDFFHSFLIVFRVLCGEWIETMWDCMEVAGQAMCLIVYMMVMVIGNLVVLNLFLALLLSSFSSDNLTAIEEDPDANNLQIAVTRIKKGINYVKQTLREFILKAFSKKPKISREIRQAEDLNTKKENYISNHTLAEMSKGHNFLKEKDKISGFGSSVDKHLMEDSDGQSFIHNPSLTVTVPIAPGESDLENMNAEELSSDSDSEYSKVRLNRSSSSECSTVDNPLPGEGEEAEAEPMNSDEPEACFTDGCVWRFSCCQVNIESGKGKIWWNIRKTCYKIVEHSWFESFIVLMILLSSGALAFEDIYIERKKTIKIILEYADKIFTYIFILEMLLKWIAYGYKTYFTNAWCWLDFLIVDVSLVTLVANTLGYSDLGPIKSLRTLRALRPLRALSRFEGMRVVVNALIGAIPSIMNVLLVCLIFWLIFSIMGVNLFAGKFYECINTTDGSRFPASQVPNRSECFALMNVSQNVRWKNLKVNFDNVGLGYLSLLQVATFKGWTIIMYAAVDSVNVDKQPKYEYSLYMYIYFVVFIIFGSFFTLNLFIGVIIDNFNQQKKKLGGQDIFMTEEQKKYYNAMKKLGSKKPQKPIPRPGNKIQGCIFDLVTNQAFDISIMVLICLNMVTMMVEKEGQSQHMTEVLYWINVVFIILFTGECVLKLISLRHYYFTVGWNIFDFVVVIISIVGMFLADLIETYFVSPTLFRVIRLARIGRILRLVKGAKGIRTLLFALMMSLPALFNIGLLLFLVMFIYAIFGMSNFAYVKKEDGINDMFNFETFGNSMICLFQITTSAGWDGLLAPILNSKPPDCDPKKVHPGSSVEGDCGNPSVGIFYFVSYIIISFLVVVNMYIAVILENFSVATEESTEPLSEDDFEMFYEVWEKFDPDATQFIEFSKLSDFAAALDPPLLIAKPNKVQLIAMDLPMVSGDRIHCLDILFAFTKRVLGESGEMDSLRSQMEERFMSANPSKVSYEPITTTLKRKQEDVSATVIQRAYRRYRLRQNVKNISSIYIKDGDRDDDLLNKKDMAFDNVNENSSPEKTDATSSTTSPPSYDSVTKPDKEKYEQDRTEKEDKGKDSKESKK

T1 sequence (Q7Z2W7 whole entry): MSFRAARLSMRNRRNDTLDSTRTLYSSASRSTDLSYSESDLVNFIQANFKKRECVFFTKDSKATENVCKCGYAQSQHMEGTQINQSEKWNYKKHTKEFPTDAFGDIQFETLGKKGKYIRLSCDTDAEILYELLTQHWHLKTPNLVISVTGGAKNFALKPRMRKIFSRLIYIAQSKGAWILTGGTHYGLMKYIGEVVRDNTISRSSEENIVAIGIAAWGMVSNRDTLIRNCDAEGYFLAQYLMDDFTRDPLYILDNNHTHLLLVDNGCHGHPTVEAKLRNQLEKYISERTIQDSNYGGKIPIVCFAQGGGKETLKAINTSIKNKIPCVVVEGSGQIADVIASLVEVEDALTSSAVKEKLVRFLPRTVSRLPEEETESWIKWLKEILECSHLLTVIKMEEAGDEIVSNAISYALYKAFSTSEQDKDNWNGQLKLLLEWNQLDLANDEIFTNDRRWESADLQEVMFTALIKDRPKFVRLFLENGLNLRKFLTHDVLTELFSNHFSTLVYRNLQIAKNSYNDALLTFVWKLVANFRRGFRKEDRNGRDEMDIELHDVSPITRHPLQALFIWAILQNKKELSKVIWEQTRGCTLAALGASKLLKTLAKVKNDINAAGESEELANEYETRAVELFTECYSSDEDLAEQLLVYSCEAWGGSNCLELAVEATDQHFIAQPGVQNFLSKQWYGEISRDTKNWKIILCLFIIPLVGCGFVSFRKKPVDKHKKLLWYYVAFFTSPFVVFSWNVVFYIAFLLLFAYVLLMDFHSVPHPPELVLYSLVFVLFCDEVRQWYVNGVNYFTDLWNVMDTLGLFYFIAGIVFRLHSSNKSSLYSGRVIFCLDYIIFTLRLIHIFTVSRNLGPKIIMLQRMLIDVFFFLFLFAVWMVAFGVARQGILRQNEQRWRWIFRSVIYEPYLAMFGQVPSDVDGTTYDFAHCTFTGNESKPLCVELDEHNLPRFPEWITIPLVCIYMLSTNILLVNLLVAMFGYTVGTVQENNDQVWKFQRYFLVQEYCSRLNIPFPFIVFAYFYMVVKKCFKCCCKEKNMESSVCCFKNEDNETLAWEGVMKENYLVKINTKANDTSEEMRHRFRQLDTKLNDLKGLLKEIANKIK

Compound | Duration [1] | Onset [1] | Sensory Quality [1] | Chili test (oropharynx [2]) | ODT-C test results (sensation and taste in words) (mouth and throat) | duration of cooling effect (mouth and throat) | ASHRAE equivalent (mouth and throat) | Cold Discomfort (throat) | Relative Potency to L-menthol [3] | also measured
CCCCCP(=O)(C(C)C)C(C)C [DAPA-1-5, 1-Di(isopropyl)-phosphinoyl-pentane] | 5 min | 0.1 min | cool | ++ | brief but intense cool | < 5 min | −2.7 | 0 | 0.7 | 
N=C(N)NC(=O)c1nc(Cl)c(N)nc1N [amiloride, reference compound] |  |  |  |  |  |  |  |  |  | agonist or antagonist activity, ASIC3 (ASIC3 (acid-sensing)): active
CCCCCCCCP(=O)(C(C)C)C(C)C [DAPA-1-8, 1-Di(isopropyl)-phosphinoyl-octane] | 27 min | 1.2 min | cool | + | strong unpleasant taste | ~15 min | −3 | + | 5.4 | 
CC(C)[C@@H]1CC[C@@H](C)C[C@H]1O [Menthol, L-menthol, reference compound] |  |  |  |  |  |  |  |  |  | average threshold for cooling on the tongue [4]: 0.25 µg; sensory effects / side-effects in an ODT (oropharynx [5]): produced chest discomfort; rank in TRPM8 potency among the 21 compounds tested [3]: 16
CCN(CC)CC(=O)Nc1c(C)cccc1C [lidocaine, reference compound] |  |  |  |  |  |  |  |  |  | agonist or antagonist activity, hNav1.7 [6]: active
CCCCP(=O)(C(C)CC)C(C)CC (stereo not drawn) [DAPA-2-4, 1-Di(sec-butyl) phosphinoyl-butane] | 3 min | 1 min | brief cool | 0 | pleasant cool, but transient effect | < 5 min | −2.5 | 0 | 0.3 | 
CCCCCP(=O)(CC(C)C)CC(C)C [DAPA-3-1, 1-di(iso-butyl) phosphinoyl-pentane] | 0 min |  | not active | 0 |  |  |  | 0 | 0.2 | Onset (min) [1]: not active; EC50 [3]: 24 µM
O=C1NC(c2cccc([N+](=O)[O-])c2)=CCN1c1ccccc1O [icilin, reference compound] |  |  |  |  |  |  |  |  |  | sensory effects / side-effects in an ODT (oropharynx [5]): did not produce cooling in the chest or the desired sensations on the throat; rank in TRPM8 potency among the 21 compounds tested [3]: 4
CCC(C)P(=O)(CCC(C)C)C(C)CC (stereo not drawn) [DAPA-3-2, 1-Di(sec-butyl) phosphinoyl-3-methyl-butane] | 2 min | 1 min | brief cool | 0 |  |  |  | 0 | 0.9 | EC50 [3]: 4.2 µM
